Reference: patent US20210290676A1, “IMPROVING THE EFFICACY AND SAFETY OF ADOPTIVE CELLULAR THERAPIES” (University of Southern California, priority 2018, published 2021)

Assays:
Format in all cases: cell-based, human
[1] = system: Pgp+ (DiOC2(3)-dye effluxing) T cells; experiment: DiOC2(3) dye efflux flow cytometry of inhibitor-treated T cells; conditions: treatment for 13 days, IL2 + CD3 and CD28 antibodies
Protocol: (§1) The use of P-glycoprotein (Pgp)-mediated efflux of DiOC2(3) to isolate stem like T cells for adoptive cellular therapy has been described in application no. […] In the following examples, DiOC2(3) staining was used to study the effect of different inhibitors on generation of stem like T cells.
(§2) DAY 0: Blood was obtained from unidentified donor. After RBC lysis, PBMC were collected using Ficoll-Hypaque separation. […] T cells were cultured in three different conditions: • 1. XVIVO 15 medium (Lonza) with IL2 50 IU/ml, CD3 antibody (30 ng/ml) and CD28 antibody (30 ng/ml). • 2. XVIVO 15 medium (Lonza) with CD3 antibody (30 ng/ml) and CD28 antibody (30 ng/ml). • 3. XVIVO 15 medium (Lonza) with IL2 50 IU/ml DAY 1: Cells were plated in a 6-well plate at a density of 1 million cells in 2 ml/of media (as described above) and treated with different inhibitors
(§3) The cell growth medium was changed in 6-well plates and fresh drugs were added at same concentration for one more week.
(§4) […] (DAY 11): Culture medium was changed and fresh drugs were added in 6-well plates.
(§5) Subsequently, cells were washed with RPMI medium and dye was effluxed at 37° C. for 90 min. Cells were washed with […], stained with CD62L-APC (5 μl/100 μl/sample) at 4° C. for 1 h, washed twice with PBS+1% FBS and analyzed on flow cytometer to check if these drugs treatment leads to increase in Pgp+/CD62L positive population.
(§6) Day 0: Blood was obtained from unidentified donor. After RBC lysis, PBMC were collected using Ficoll-Hypaque separation. 200 million T cells were isolated from PBMCs using CD3 microbeads. T cells were cultured overnight in XVIVO 15 medium (Lonza) with IL2 (50 IU/ml), 30 ng/ml of CD3 and CD28 antibodies
(§7) Day 1: Cells were plated in 24-well plates at a density of 0.3 million cells/ml in each well and treated with different drugs.
(§8) On day 7, culture medium was replaced with fresh medium with fresh drugs.
(§9) On day 13, culture medium was replaced with fresh medium and fresh drugs. Half of the cells were transferred to 6-well plates.
(§10) Day 14: An aliquot of cells with all the treatments listed above (for 13 days) was used to stain the cells with DiOC2(3) (60 ng/ml in RPMI medium) at 4° C. for 40 min, washed with RPMI medium, DiOC2(3) dye was effluxed at 37° C. for 90 min, washed with PBS+1% FBS, stained with CD62L-APC antibody. CD62L is a marker for resting T cells. (5 μl/100 μl/sample) at 4° C. for 1 h, washed twice with PBS+1% FBS and analyzed on flow cytometer to check if these drugs are affecting the dye-effluxing or Pgp+ (i.e., DiOC2(3)-dull) T-cell population.

[2] = system: Pgp+ (DiOC2(3)-dye effluxing cells) and CD62L+ T cells; experiment: DiOC2(3) dye efflux plus CD62L-APC staining, flow cytometry of inhibitor-treated T cells; conditions: treatment for 13 days, IL2 + CD3 and CD28 antibodies
Protocol: as §1, §2, §3, §4, §5, §6, §7, §8, §9, §10

[3] = system: CD8+CD45RA+CCR7+CD62L+ T cells; experiment: Flow cytometry for CD8, CD45RA, CCR7 and CD62L on inhibitor-treated T cells; conditions: cells cultured for 14 days
Protocol: as §2
(§11) A second aliquot of the cells cultured for 13 days with all the treatments listed above (1-21) was washed with PBS+1% FBS, stained with CD8-PerCP, CD45RA-FITC, CCR7-PE and CD62L-APC (5% Y/100 μl/sample for each of 4 antibodies) at 4° C. for 1 h, washed twice with PBS+100 FBS and analyzed on flow cytometer to check if these drugs are enriching T stem cells showing surface expression of CD8+CD45RA+CCR7+CD62L+.
as §6, §7, §8, §9
as §11, with “14” for “13”, “above” for “above (1-21)”, “(5 ul/100 ul/sample” for “(5% Y/100 μl/sample”, “PBS+1%” for “PBS+100”, “enriching for” for “enriching”, “T” for “T stem”

[4] = system: CD45RA+CCR7+CD62L+ T cells; experiment: Flow cytometry for CD45RA, CCR7 and CD62L on inhibitor-treated T cells (all T cells); conditions: cells cultured for 14 days
Protocol: as §2, §11, §6, §7, §8, §9
as §11, with “14” for “13”, “above” for “above (1-21)”, “(5 ul/100 ul/sample” for “(5% Y/100 μl/sample”, “PBS+1%” for “PBS+100”, “enriching for” for “enriching”, “T” for “T stem”

| SMILES | p2: pgp+ from Live cells ([1]; 1 μM) | p2: pgp+ from Live cells ([1]; 2 μM) | p5: double +ve pgp+ and CD62L-APC+ from Live cells ([2]; 1 μM) | p5: double +ve pgp+ and CD62L-APC+ from Live cells ([2]; 2 μM) | GATE P4 CD8(PerCP)+, CD45RA(FITC)+, CCR7 (PE)+, CD62L(APC) ([3]; 1 μM) [%] | GATE P4 CD8(PerCP)+, CD45RA(FITC)+, CCR7 (PE)+, CD62L(APC) ([3]; 2 μM) [%] | GATE P6 CD45RA(FITC)+, CCR7 (PE)+, CD62L(APC) ([4]; 1 μM) [%] | GATE P6 CD45RA(FITC)+, CCR7 (PE)+, CD62L(APC) ([4]; 2 μM) [%] | p2: pgp+ from Live cells ([1]; 500 nM) | p5: double +ve pgp+ and CD62L-APC+ from Live cells ([2]; 500 nM) | GATE P4 CD8(PerCP)+, CD45RA(FITC)+, CCR7 (PE)+, CD62L(APC) ([3]; 500 nM) [%] | GATE P6 CD45RA(FITC)+, CCR7 (PE)+, CD62L(APC) ([4]; 500 nM) [%] |
| --- | --- | --- | --- | --- | --- | --- | --- | --- | --- | --- | --- | --- |
| Cc1cc(C)c(CNC(=O)c2cc(-c3ccc(N4CCN(C)CC4)nc3)cc3c2c(C)cn3C(C)C)c(=O)[nH]1 [GSK503] | 47.87 | 56.13 | 15.79 | 19.99 | 75.24 | 75.8 | 63.54 | 62.62 |  |  |  |  |
| CCn1cc(-c2cccc(C(F)(F)F)c2)c2sc(C(=N)NC3CCS(=O)(=O)CC3)cc2c1=O [IBRD9] | 31.69 |  | 7.26 |  | 79.18 |  | 67.77 |  | 21.12 | 4.51 | 74.3 | 61.53 |
